# Source: patent US8952024B2, “Herbicidal pyrimidone derivatives” (E I du Pont de Nemours and Company, priority 2009, dated 2015)
# How the values were obtained:
# Assay in all cases: Test B pre-/postemergence plant response
# Assay type in all cases: in vivo
# [1] = tested on: yellow nutsedge (Cyperus esculentus); details: for Nutsedge, Yellow plant response rating (0 to 100 scale): 62 g ai/ha, postemergence, 0 is no effect, 100 is complete control; for Plant response rating, Nutsedge, Yellow: Postemergence
# In short: (§1)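 Ratings reflect visual comparison with untreated controls 13 to 15 days after application, from 0 (no effect) to 100 (complete control). Application was preemergence to seeded loam/sand soil or postemergence to 1- to 4-leaf plants, with compound in a non-phytotoxic, surfactant-containing solvent.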
# [2] = tested on: Italian ryegrass (Lolium multiflorum); details: for Ryegrass, Italian plant response rating (0 to 100 scale): 62 g ai/ha, postemergence, 0 is no effect, 100 is complete control; for Plant response rating, Ryegrass, Italian: Postemergence
# In short: as §1
# kochia (Kochia scoparia) = details: for Kochia plant response rating (0 to 100 scale): 62 g ai/ha, postemergence, 0 is no effect, 100 is complete control; for Plant response rating, Kochia: Postemergence
# In short: as §1
# [3] = tested on: large crabgrass (Digitaria sanguinalis); details: for Crabgrass, Large plant response rating (0 to 100 scale): 62 g ai/ha, postemergence, 0 is no effect, 100 is complete control; for Plant response rating, Crabgrass, Large: Postemergence
# In short: as §1
# [4] = tested on: cocklebur (Xanthium strumarium); details: for Cocklebur plant response rating (0 to 100 scale): 62 g ai/ha, postemergence, 0 is no effect, 100 is complete control; for Plant response rating, Cocklebur: Postemergence
# In short: as §1
# [5] = tested on: woolly cupgrass (Eriochloa villosa); details: for Cupgrass, Woolly plant response rating (0 to 100 scale): 62 g ai/ha, postemergence, 0 is no effect, 100 is complete control; for Plant response rating, Cupgrass, Woolly: Postemergence
# In short: as §1
# soybean (Glycine max) = details: for Soybean plant response rating (0 to 100 scale): 62 g ai/ha, postemergence, 0 is no effect, 100 is complete control; for Plant response rating, Soybean: Postemergence
# In short: as §1
# [6] = tested on: bermudagrass (Cynodon dactylon); details: for Bermudagrass plant response rating (0 to 100 scale): 62 g ai/ha, postemergence, 0 is no effect, 100 is complete control; for Plant response rating, Bermudagrass: Postemergence
# In short: as §1
# [7] = tested on: morningglory (Ipomoea coccinea); details: for Morningglory plant response rating (0 to 100 scale): 62 g ai/ha, postemergence, 0 is no effect, 100 is complete control; for Plant response rating, Morningglory: Postemergence
# In short: as §1
# [8] = tested on: velvetleaf (Abutilon theophrasti); details: for Velvetleaf plant response rating (0 to 100 scale): 62 g ai/ha, postemergence, 0 is no effect, 100 is complete control; for Plant response rating, Velvetleaf: Postemergence
# In short: as §1
# [9] = tested on: downy bromegrass (Bromus tectorum); details: for Bromegrass, Downy plant response rating (0 to 100 scale): 62 g ai/ha, postemergence, 0 is no effect, 100 is complete control; for Plant response rating, Bromegrass, Downy: Postemergence
# In short: as §1
# [10] = tested on: wheat (Triticum aestivum); details: for Wheat plant response rating (0 to 100 scale): 62 g ai/ha, postemergence, 0 is no effect, 100 is complete control; for Plant response rating, Wheat: Postemergence
# In short: as §1
# [11] = 31 g ai/ha, 0 to 100 scale (0 no effect, 100 complete control)
# [12] = 125 g ai/ha, scale 0 to 100 (0 no effect, 100 complete control)
# [13] = 250 g ai/ha, scale 0 to 100 (0 no effect, 100 complete control), 13 to 15 days
structure (smiles),measurement,setting,value
COCCn1c(-c2cccc(Cl)c2)ncc(C(=O)C2=C(O)CCCC2=O)c1=O [Compound 147],"Nutsedge, Yellow plant response rating (0 to 100 scale)",[1]; 13 to 15 days,60
same,"Plant response rating, Nutsedge, Yellow",[1]; [11],50
same,"Plant response rating, Nutsedge, Yellow",[1]; [12],70
same,"Plant response rating, Nutsedge, Yellow",[1]; [13],75
same,"Ryegrass, Italian plant response rating (0 to 100 scale)",[2]; 13 to 15 days,5
same,"Plant response rating, Ryegrass, Italian",[2]; [11],5
same,"Plant response rating, Ryegrass, Italian",[2]; [12],30
same,"Plant response rating, Ryegrass, Italian",[2]; [13],40
same,Kochia plant response rating (0 to 100 scale),kochia (Kochia scoparia); 13 to 15 days,75
same,"Plant response rating, Kochia",kochia (Kochia scoparia); [11],40
same,"Plant response rating, Kochia",kochia (Kochia scoparia); [12],80
same,"Plant response rating, Kochia",kochia (Kochia scoparia); [13],100
same,"Crabgrass, Large plant response rating (0 to 100 scale)",[3]; 13 to 15 days,75
same,"Plant response rating, Crabgrass, Large",[3]; [11],60
same,"Plant response rating, Crabgrass, Large",[3]; [12],85
same,"Plant response rating, Crabgrass, Large",[3]; [13],90
same,Cocklebur plant response rating (0 to 100 scale),[4]; 13 to 15 days,75
same,"Plant response rating, Cocklebur",[4]; [11],50
same,"Plant response rating, Cocklebur",[4]; [12],90
same,"Plant response rating, Cocklebur",[4]; [13],100
same,"Cupgrass, Woolly plant response rating (0 to 100 scale)",[5]; 13 to 15 days,70
same,"Plant response rating, Cupgrass, Woolly",[5]; [11],65
same,"Plant response rating, Cupgrass, Woolly",[5]; [12],80
same,"Plant response rating, Cupgrass, Woolly",[5]; [13],80
same,Soybean plant response rating (0 to 100 scale),soybean (Glycine max); 13 to 15 days,60
same,"Plant response rating, Soybean",soybean (Glycine max); [11],15
same,"Plant response rating, Soybean",soybean (Glycine max); [12],65
same,"Plant response rating, Soybean",soybean (Glycine max); [13],85
same,Bermudagrass plant response rating (0 to 100 scale),[6]; 13 to 15 days,90
same,"Plant response rating, Bermudagrass",[6]; [11],75
same,"Plant response rating, Bermudagrass",[6]; [12],95
same,"Plant response rating, Bermudagrass",[6]; [13],98
same,Morningglory plant response rating (0 to 100 scale),[7]; 13 to 15 days,50
same,"Plant response rating, Morningglory",[7]; [11],50
same,"Plant response rating, Morningglory",[7]; [12],65
same,"Plant response rating, Morningglory",[7]; [13],100
same,Velvetleaf plant response rating (0 to 100 scale),[8]; 13 to 15 days,80
same,"Plant response rating, Velvetleaf",[8]; [11],60
same,"Plant response rating, Velvetleaf",[8]; [12],95
same,"Plant response rating, Velvetleaf",[8]; [13],100
same,"Bromegrass, Downy plant response rating (0 to 100 scale)",[9]; 13 to 15 days,5
same,"Plant response rating, Bromegrass, Downy",[9]; [11],0
same,"Plant response rating, Bromegrass, Downy",[9]; [12],5
same,"Plant response rating, Bromegrass, Downy",[9]; [13],10
same,Wheat plant response rating (0 to 100 scale),[10]; 13 to 15 days,5
same,"Plant response rating, Wheat",[10]; [11],0
same,"Plant response rating, Wheat",[10]; [12],5
same,"Plant response rating, Wheat",[10]; [13],10
CCCn1c(-c2cc(F)cc(F)c2)ncc(C(=O)C2=C(O)CCCC2=O)c1=O [Compound 152],"Nutsedge, Yellow plant response rating (0 to 100 scale)",[1]; 13 to 15 days,75
same,"Plant response rating, Nutsedge, Yellow",[1]; [11],65
same,"Plant response rating, Nutsedge, Yellow",[1]; [12],80
same,"Plant response rating, Nutsedge, Yellow",[1]; [13],80
same,"Ryegrass, Italian plant response rating (0 to 100 scale)",[2]; 13 to 15 days,30
same,"Plant response rating, Ryegrass, Italian",[2]; [11],5
same,"Plant response rating, Ryegrass, Italian",[2]; [12],45
same,"Plant response rating, Ryegrass, Italian",[2]; [13],80
same,Kochia plant response rating (0 to 100 scale),kochia (Kochia scoparia); 13 to 15 days,65
same,"Plant response rating, Kochia",kochia (Kochia scoparia); [11],10
same,"Plant response rating, Kochia",kochia (Kochia scoparia); [12],95
same,"Plant response rating, Kochia",kochia (Kochia scoparia); [13],100
same,"Crabgrass, Large plant response rating (0 to 100 scale)",[3]; 13 to 15 days,85
same,"Plant response rating, Crabgrass, Large",[3]; [11],75
same,"Plant response rating, Crabgrass, Large",[3]; [12],95
same,"Plant response rating, Crabgrass, Large",[3]; [13],95
same,Cocklebur plant response rating (0 to 100 scale),[4]; 13 to 15 days,80
same,"Plant response rating, Cocklebur",[4]; [11],70
same,"Plant response rating, Cocklebur",[4]; [12],98
same,"Plant response rating, Cocklebur",[4]; [13],100
same,"Cupgrass, Woolly plant response rating (0 to 100 scale)",[5]; 13 to 15 days,98
same,"Plant response rating, Cupgrass, Woolly",[5]; [11],95
same,"Plant response rating, Cupgrass, Woolly",[5]; [12],98
same,"Plant response rating, Cupgrass, Woolly",[5]; [13],100
same,Soybean plant response rating (0 to 100 scale),soybean (Glycine max); 13 to 15 days,70
same,"Plant response rating, Soybean",soybean (Glycine max); [11],70
same,"Plant response rating, Soybean",soybean (Glycine max); [12],98
same,"Plant response rating, Soybean",soybean (Glycine max); [13],100
same,Bermudagrass plant response rating (0 to 100 scale),[6]; 13 to 15 days,95
same,"Plant response rating, Bermudagrass",[6]; [11],95
same,"Plant response rating, Bermudagrass",[6]; [12],98
same,"Plant response rating, Bermudagrass",[6]; [13],98
same,Morningglory plant response rating (0 to 100 scale),[7]; 13 to 15 days,75
same,"Plant response rating, Morningglory",[7]; [11],45
same,"Plant response rating, Morningglory",[7]; [12],75
same,"Plant response rating, Morningglory",[7]; [13],95
same,Velvetleaf plant response rating (0 to 100 scale),[8]; 13 to 15 days,95
same,"Plant response rating, Velvetleaf",[8]; [11],85
same,"Plant response rating, Velvetleaf",[8]; [12],100
same,"Plant response rating, Velvetleaf",[8]; [13],100
same,"Bromegrass, Downy plant response rating (0 to 100 scale)",[9]; 13 to 15 days,55
same,"Plant response rating, Bromegrass, Downy",[9]; [11],30
same,"Plant response rating, Bromegrass, Downy",[9]; [12],60
same,"Plant response rating, Bromegrass, Downy",[9]; [13],85
same,Wheat plant response rating (0 to 100 scale),[10]; 13 to 15 days,50
same,"Plant response rating, Wheat",[10]; [11],35
same,"Plant response rating, Wheat",[10]; [12],85
same,"Plant response rating, Wheat",[10]; [13],90
